{"source": "patent US11084800B2", "about": "(Achillion Pharmaceuticals, Inc., priority 2017, dated 2021)"}
{"target": "Human Factor D (Homo sapiens (Human), UniProt P00746)", "sequence (P00746 26-253)": "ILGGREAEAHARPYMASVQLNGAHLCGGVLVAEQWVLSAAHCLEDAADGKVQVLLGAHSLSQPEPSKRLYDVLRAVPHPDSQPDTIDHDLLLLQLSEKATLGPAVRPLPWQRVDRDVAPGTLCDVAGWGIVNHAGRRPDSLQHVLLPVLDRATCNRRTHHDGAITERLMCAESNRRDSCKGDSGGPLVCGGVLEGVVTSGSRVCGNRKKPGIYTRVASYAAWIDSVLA", "assay": "Human Factor D Assay", "format": "biochemical", "details": "Table 6; Factor D 80 nM, substrate Z-L-Lys-SBz; read-out: IC50", "procedure": "The assay of Example 10 was used to determine the IC50's of the compounds. Other standard factor D inhibition assays are also available.\nHuman Factor D (purified from human serum, Complement Technology, Inc.) at 80 nM final concentration is incubated with test compound at various concentrations for 5 min at room temperature in 50 mM Tris, 1M NaCl, pH 7.5. A synthetic substrate Z-L-Lys-SBz and DTNB (Ellman's reagent) are added to final concentrations of 100 μM each. Absorbance at 405 nm (A405) is recorded at 30 second intervals for 30 min using a microplate spectrophotometer. IC50 values are calculated by nonlinear regression of complement Factor D reaction rates as a function of test compound concentration.", "units": {"IC50": "nM"}}
{"smiles": "CC(=O)c1nn(CC(=O)N2[C@H](C(=O)Nc3nc(Br)c(F)cc3C)C[C@@]3(C)C[C@@H]23)c2c(C)cc(-c3cnc(C)nc3)cc12", "note": "[Compound 27, (1R,3S,5R)-2-(2-(3-acetyl-7-methyl-5-(2-methylpyrimidin-5-yl)-1H-indazol-1-yl)acetyl)-N-(6-bromo-5-fluoro-3-methylpyridin-2-yl)-5-methyl-2-azabicyclo[3.1.0]hexane-3-carboxamide]", "IC50": "< 1000"}
{"smiles": "C=CCOCc1ccc(Br)nc1NC(=O)[C@@H]1C[C@]2(COCC=C)C[C@@H]2N1C(=O)Cn1nc(C(C)=O)c2cc(-c3cnc(C)nc3)ccc21", "note": "[Compound 29, (1S,3S,5R)-2-(2-(3-Acetyl-5-(2-methylpyrimidin-5-yl)-1H-indazol-1-yl)acetyl)-5-((allyloxy)methyl)-N-(3-((allyloxy)methyl)-6-bromopyridin-2-yl)-2-azabicyclo[3.1.0]hexane-3-carboxamide]", "IC50": "< 1000"}
{"smiles": "CC(=O)c1nn(CC(=O)N2[C@H](C(=O)Nc3nc(Br)ccc3C)C[C@@]3(C)C[C@@H]23)c2c(CF)cc(-c3cnc(C)nc3)cc12", "note": "[Compound 31, (1R,3S,5R)-2-(2-(3-Acetyl-7-(fluoromethyl)-5-(2-methylpyrimidin-5-yl)-1H-indazol-1-yl)acetyl)-N-(6-bromo-3-methylpyridin-2-yl)-5-methyl-2-azabicyclo[3.1.0]hexane-3-carboxamide]", "IC50": "< 1000"}
{"smiles": "COCc1cc(-c2cnc(C)nc2)cc2c(C(C)=O)nn(CC(=O)N3C4CC4(COC)C[C@H]3C(=O)Nc3cccc(Br)n3)c12", "note": "(stereo partly drawn) [Compound 32, (3S)-2-(2-(3-Acetyl-7-(methoxymethyl)-5-(2-methylpyrimidin-5-yl)-1H-indazol-1-yl)acetyl)-N-(6-bromopyridin-2-yl)-5-(methoxymethyl)-2-azabicyclo[3.1.0]hexane-3-carboxamide]", "IC50": "< 1000"}
{"smiles": "CC(=O)c1nn(CC(=O)N2[C@H](C(=O)Nc3cccc(OC(F)(F)F)c3F)C[C@@]3(C)C[C@@H]23)c2c(C)cc(-c3cnc(C)nc3)cc12", "note": "[Compound 33, (1R,3S,5R)-2-(2-(3-Acetyl-7-methyl-5-(2-methylpyrimidin-5-yl)-1H-indazol-1-yl)acetyl)-N-(2-fluoro-3-(trifluoromethoxy)phenyl)-5-methyl-2-azabicyclo[3.1.0]hexane-3-carboxamide]", "IC50": "< 1000"}
{"smiles": "CC(=O)c1nn(CC(=O)N2[C@H](C(=O)N[C@@H](C)C(F)=C(C)C)C[C@@]3(C)C[C@@H]23)c2c(C)cc(-c3cnc(C)nc3)cc12", "note": "[Compound 34, (1R,3S,5R)-2-(2-(3-Acetyl-7-methyl-5-(2-methylpyrimidin-5-yl)-1H-indazol-1-yl)acetyl)-N—((S)-3-fluoro-4-methylpent-3-en-2-yl)-5-methyl-2-azabicyclo[3.1.0]hexane-3-carboxamide]", "IC50": "< 1000"}
{"smiles": "CC(=O)c1nn(CC(=O)N2[C@H](C(=O)Nc3ccn(CC(F)(F)F)n3)C[C@@]3(C)C[C@@H]23)c2c(C)cc(-c3cnc(C)nc3)cc12", "note": "[Compound 35, (1R,3S,5R)-2-(2-(3-Acetyl-7-methyl-5-(2-methylpyrimidin-5-yl)-1H-indazol-1-yl)acetyl)-5-methyl-N-(1-(2,2,2-trifluoroethyl)-1H-pyrazol-3-yl)-2-azabicyclo[3.1.0]hexane-3-carboxamide]", "IC50": "< 1000"}
{"smiles": "CC(=O)c1nn(CC(=O)N2[C@H](C(=O)Nc3cccc(C(F)(F)F)n3)C[C@@]3(C)C[C@@H]23)c2c(C)cc(-c3cnc(C)nc3)cc12", "note": "[Compound 36, (1R,3S,5R)-2-(2-(3-Acetyl-7-methyl-5-(2-methylpyrimidin-5-yl)-1H-indazol-1-yl)acetyl)-5-methyl-N-(6-(trifluoromethyl)pyridin-2-yl)-2-azabicyclo[3.1.0]hexane-3-carboxamide]", "IC50": "< 1000"}
{"smiles": "CC(=O)c1nn(CC(=O)N2[C@H](C(=O)Nc3cccc(OC(F)(F)F)n3)C[C@@]3(C)C[C@@H]23)c2c(C)cc(-c3cnc(C)nc3)cc12", "note": "[Compound 37, (1R,3S,5R)-2-(2-(3-Acetyl-7-methyl-5-(2-methylpyrimidin-5-yl)-1H-indazol-1-yl)acetyl)-5-methyl-N-(6-(trifluoromethoxy)pyridin-2-yl)-2-azabicyclo[3.1.0]hexane-3-carboxamide]", "IC50": "< 1000"}
{"smiles": "CC(=O)c1nn(CC(=O)N2[C@H](C(=O)O)C[C@@]3(C)C[C@@H]23)c2ccc(-c3cnc(C)nc3)cc12", "note": "[Compound 40, (1R,3S,5R)-2-(2-(3-acetyl-5-(2-methylpyrimidin-5-yl)-1H-indazol-1-yl)acetyl)-5-methyl-2-azabicyclo[3.1.0]hexane-3-carboxylic acid]", "IC50": "> 10000"}
{"smiles": "CC(=O)c1nn(CC(=O)N2C[C@H](F)C[C@H]2C(=O)Nc2cccc(Br)n2)c2c(C(=O)O)cc(-c3cnc(C)nc3)cc12", "note": "[Compound 41, 3-acetyl-1-(2-((2S,4R)-2-((6-bromopyridin-2-yl)carbamoyl)-4-fluoropyrrolidin-1-yl)-2-oxoethyl)-5-(2-methylpyrimidin-5-yl)-1H-indazole-7-carboxylic acid]", "IC50": "< 1000"}
{"smiles": "CNCC12CC1N(C(=O)Cn1nc(C(C)=O)c3cc(-c4cnc(C)nc4)ccc31)[C@H](C(=O)Nc1nc(Br)ccc1C)C2", "note": "(stereo partly drawn) [Compound 42, (3S)-2-(2-(3-acetyl-5-(2-methylpyrimidin-5-yl)-1H-indazol-1-yl)acetyl)-N-(6-bromo-3-methylpyridin-2-yl)-5-((methylamino)methyl)-2-azabicyclo[3.1.0]hexane-3-carboxamide]", "IC50": "< 1000"}
{"smiles": "CC(=O)NC[C@@]12C[C@@H]1N(C(=O)Cn1nc(C(C)=O)c3cc(-c4cnc(C)nc4)ccc31)[C@H](C(=O)Nc1cccc(Br)n1)C2", "note": "[Compound 43, (1S,3S,5S)-5-(Acetamidomethyl)-2-(2-(3-acetyl-5-(2-methylpyrimidin-5-yl)-1H-indazol-1-yl)acetyl)-N-(6-bromopyridin-2-yl)-2-azabicyclo[3.1.0]hexane-3-carboxamide]", "IC50": "1000 to 10000"}
{"smiles": "CC(=O)NC[C@@]12C[C@@H](C(=O)Nc3cccc(Br)n3)N(C(=O)Cn3nc(C(C)=O)c4cc(-c5cnc(C)nc5)ccc43)[C@@H]1C2", "note": "[Compound 44, (1R,3S,5R)-5-(Acetamidomethyl)-2-(2-(3-acetyl-5-(2-methylpyrimidin-5-yl)-1H-indazol-1-yl)acetyl)-N-(6-bromopyridin-2-yl)-2-azabicyclo[3.1.0]hexane-3-carboxamide]", "IC50": "< 1000"}
{"smiles": "COC(=O)N[C@H](C(=O)NCC12CC1N(C(=O)Cn1nc(C(C)=O)c3cc(-c4cnc(C)nc4)ccc31)[C@H](C(=O)Nc1cccc(Br)n1)C2)C(C)C", "note": "(stereo partly drawn) [Compound 45, Methyl (2S)-1-(((3S)-2-(2-(3-acetyl-5-(2-methylpyrimidin-5-yl)-1H-indazol-1-yl)acetyl)-3-(6-bromopyridin-2-ylcarbamoyl)-2-azabicyclo[3.1.0]hexan-5-yl)methylamino)-3-methyl-1-oxobutan-2-ylcarbamate]", "IC50": "< 1000"}
{"smiles": "CC(=O)c1nn(CC(=O)N2[C@H](C(=O)Nc3ccc(F)c(Br)n3)C[C@@]3(C)C[C@@H]23)c2c(C)cc(-c3cnc(C)nc3)cc12", "note": "[Compound 46, (1R,3S,5R)-2-(2-(3-acetyl-7-methyl-5-(2-methylpyrimidin-5-yl)-1H-indazol-1-yl)acetyl)-N-(6-bromo-5-fluoropyridin-2-yl)-5-methyl-2-azabicyclo[3.1.0]hexane-3-carboxamide]", "IC50": "< 1000"}
